Molecules are shown by their SMILES. Counter-ions that a name gives are not always drawn.

One assay has as its target T1, mGluR5 receptor (Sus scrofa, UniProt I3LUI7).
T1 construct: from tissue; host or cells: pig brain halves without medulla, cerebellum and pons
The assay is described as follows: Inhibition of [3H]-MPEP bond in the mGluR5 receptor bond assay (pig brain homogenate). Format: binding. As to conditions: 450 μg protein from pig brain homogenate, 5 nM [3H]-MPEP, 60 min, room temperature. The procedure:
Substituted propiolic acid amides of the above-mentioned general formula I are likewise particularly preferred, which, after 60 minutes of incubation in 450 μg protein from pig brain homogenate at a temperature between 20° C. and 25° C. in a concentration of less than 2000 nM, preferably of less than 1000 nM, particularly preferably of less than 700 nM, very particularly preferably of less than 100 nM, even more preferably of less than 30 nM, bring about a 50-percent displacement of [^3H]-2-methyl-6-(3-methoxyphenyl)-ethynylpyridine which is present in a concentration of 5 nM.
Thereby, the determination of the displacement of [^3H]-2-methyl-6-(3-methoxyphenyl)-ethynylpyridine is performed as described in the section Pharmacological Methods, I. Method for determining the inhibition of [^3H]-MPEP-bonding in the mGluR5 receptor bonding assay.
I. Method for Determining the Inhibition of the [^3H]-MPEP Bond in the mGluR5 Receptor Bond Assay
Pig brain homogenate is produced by homogenisation (Polytron PT 3000, Kinematica AG, 10,000 rpm for 90 seconds) of pig brain halves without medulla, cerebellum and pons in buffer pH 8.0 (30 mM Hepes, Sigma, order no. H3375+1 tablet complete to 100 ml, Roche Diagnostics, order no. 1836145) in ratio 1:20 (brain weight/volume) and differential centrifugation at 900×g and 40,000×g. In each case, 450 μg protein from brain homogenate is incubated with 5 nM ^3[H]-MPEP (Tocris, order no. R1212) (MPEP=2-methyl-6-(3-methoxyphenyl)-ethynylpyridine) in 250 μl incubation batches in 96 well microtitration plates and the compounds to be tested (10 μM in the test) in buffer (as above) at room temperature for 60 min.
Thereafter, the batches are filtered with the help of a Brandel Cell Harvester (Brandel, TYP Robotic 9600) on unifilter plates with glass fibre filter mats (Perkin Elmer, order no. 6005177) and subsequently washed with buffer (as above) 3 times with in each case 250 μl per sample. The filter plates are subsequently dried for 60 min at 55° C. 30 μL Ultima Gold™ scintillator is subsequently added per well (Packard BioScience, order no. 6013159) and the samples are measured after 3 hours on the β-counter (Mikrobeta, Perkin Elmer). The unspecific bond is determined by addition of 10 μM MPEP (Tocris, order no. 1212).

Assay [1] can be described thus: Formaline test in rats (phase 2, chronic pain component). Format: in vivo. As to conditions: phase 2 (21 to 27 min after formaline injection). The procedure:
III. Formaline Test in Rats: The formaline test (Dubuisson, D. and Dennis, S. G., 1977, Pain, 4, 161-174) represents a model for acute and chronic pain. A biphasic nociceptive reaction, which is recorded by observation of three clearly differentiable behavioural patterns, is induced by a single formaline injection into the dorsal side of a rear paw in freely mobile test animals. The reaction has two phases: Phase 1=Immediate reaction (duration up to 10 min; paw shaking, licking), Phase 2=Late reaction (after a rest phase; likewise, paw shaking, licking; duration up to 60 min). The 1st phase reflects a direct stimulation of the peripheral nocisensors with high spinal nociceptive input or glutamate release (acute pain phase); the 2nd phase reflects a spinal and peripheral hypersensitisation (chronic pain phase). In the investigations presented here, the chronic pain component (phase 2) was evaluated. Formaline with a volume of 50 μl and a concentration of 5% is administered subcutaneously into the dorsal side of the right rear paw of each animal. The substances to be tested are administered for 30 min before the formaline injection orally (p.o.), intravenously (i.v.) or intraperitoneally (i.p.). […]

T1 sequence (I3LUI7 19-1212): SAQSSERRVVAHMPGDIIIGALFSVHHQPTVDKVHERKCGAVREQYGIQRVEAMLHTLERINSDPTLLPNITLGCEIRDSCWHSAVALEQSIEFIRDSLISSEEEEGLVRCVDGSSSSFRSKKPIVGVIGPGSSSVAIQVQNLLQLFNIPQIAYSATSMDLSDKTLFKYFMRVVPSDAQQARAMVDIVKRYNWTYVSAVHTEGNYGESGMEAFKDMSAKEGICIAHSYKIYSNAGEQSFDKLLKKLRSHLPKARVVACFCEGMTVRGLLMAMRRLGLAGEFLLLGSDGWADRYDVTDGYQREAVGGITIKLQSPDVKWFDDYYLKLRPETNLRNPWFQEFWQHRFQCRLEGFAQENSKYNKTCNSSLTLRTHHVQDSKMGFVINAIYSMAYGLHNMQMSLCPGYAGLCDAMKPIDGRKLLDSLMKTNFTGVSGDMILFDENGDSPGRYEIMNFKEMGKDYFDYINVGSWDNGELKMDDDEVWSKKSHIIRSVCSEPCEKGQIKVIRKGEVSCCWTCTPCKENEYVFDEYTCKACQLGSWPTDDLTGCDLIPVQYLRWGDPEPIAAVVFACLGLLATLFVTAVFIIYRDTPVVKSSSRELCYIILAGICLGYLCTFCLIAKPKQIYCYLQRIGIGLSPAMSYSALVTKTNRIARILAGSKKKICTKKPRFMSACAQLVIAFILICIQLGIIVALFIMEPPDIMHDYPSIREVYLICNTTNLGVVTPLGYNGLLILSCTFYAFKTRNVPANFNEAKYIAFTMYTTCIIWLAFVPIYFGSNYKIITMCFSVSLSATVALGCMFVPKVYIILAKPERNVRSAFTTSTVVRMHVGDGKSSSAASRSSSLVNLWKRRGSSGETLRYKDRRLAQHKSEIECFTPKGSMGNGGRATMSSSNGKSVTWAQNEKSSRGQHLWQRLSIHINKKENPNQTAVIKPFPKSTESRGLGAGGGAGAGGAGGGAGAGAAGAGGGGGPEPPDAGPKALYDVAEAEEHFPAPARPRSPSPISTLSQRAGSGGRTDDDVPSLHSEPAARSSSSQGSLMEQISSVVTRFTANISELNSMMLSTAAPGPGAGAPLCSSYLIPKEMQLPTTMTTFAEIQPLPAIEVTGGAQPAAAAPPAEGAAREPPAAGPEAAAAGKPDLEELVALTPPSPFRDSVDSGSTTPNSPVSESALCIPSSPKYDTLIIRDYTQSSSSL

A word on the IC50: it is the concentration at which inhibition is half-maximal. A higher IC50 goes with a need for much substance. `O=C(C#Cc1ccccc1)N1CCN(c2ccsc2)CC1` [Example 1, 1-(3-phenyl-propiolyl)-4-(thiophene-3-yl)-piperazine hydrochloride]: at mGluR5 receptor, the IC50 was 1.89 µM.
In turn, `O=C(C#Cc1ccccc1)N1CCN(c2cscn2)CC1` [Example 2, 1-(3-Phenyl-propiolyl)-4-(thiazol-4-yl)-piperazine] gave an IC50 on mGluR5 receptor of 0.63 µM.
In turn, `Cn1ccnc1N1CCN(C(=O)C#Cc2ccccc2)CC1` [Example 3, 1-(3-phenyl-propiolyl)-4-(1-methyl-imidazol-2-yl)-piperazine hydrochloride] showed a concentration for half-maximal inhibition (IC50) against mGluR5 receptor of 4.84 µM.
The molecule `C[C@@H]1CN(c2cscn2)CCN1C(=O)C#Cc1cccc(Cl)c1` [Example 4, (R)-2-methyl-1-(3-(3-chloro-phenyl)-propiolyl)-4-(thiazol-4-yl)-piperazine] returned an IC50 at mGluR5 receptor of 0.016 µM. The “Formaline test (rat) i.v. Reduction in nociceptive behaviour over control at 10 mg/kg” value in assay [1] is listed as 75%.
The molecule `CC1CN(c2nncs2)CCN1C(=O)C#Cc1cccc(Cl)c1` (stereo not drawn) [Example 5, 2-methyl 1-(3-(3-chloro-phenyl)-propiolyl)-4-(1,3,4-thiadiazol-2-yl)-piperazine] returned a 50% inhibitory concentration (IC50) at mGluR5 receptor of 0.027 µM.
At mGluR5 receptor, `CN(CCNC(=O)C#Cc1cccc(Cl)c1)c1nncs1` [Example 6, 3-(3-chlorophenyl)-N-(2-(methyl(1,3,4-thiadiazol-2-yl)amino)ethyl)propiolamide] returned an IC50 of 0.021 µM.
The same measure, in the same setting: for `CN(CCNC(=O)C#Cc1cccc(Cl)c1)c1cncs1` [Example 7, 3-(3-chlorophenyl)-N-(2-(methyl(thiazol-5-yl)amino)ethyl)propiolamide] the value was 0.0005 µM; for `CN(CCNC(=O)C#Cc1cccc(Cl)c1)c1nccn1C` [Example 8, 3-(3-chlorophenyl)-N-(2-(methyl(1-methyl-1H-imidazol-2-yl)amino)ethyl)propiolamide], 0.35 µM.

The values are drawn from US8008304B2, “Substituted propiolic acid amides and their use for producing drugs” (Grüenthal GmbH, priority 2005, dated 2011).
